Laboratory results published in patent publication US12227500B2, “Substituted pyrrolo[2,3-b]pyridines for suppressing toxic endoplasmic reticulum stress” (THE TRUSTEES OF COLUMBIA UNIVERSITY IN THE CITY OF NEW YORK, priority 2018, dated 2025).
Where two headings read alike, the source gives them in different places.

Assays:
Assay in all cases: Radiolabeled ATP kinase assay, panel of 60 kinases (Table S5)
Format in all cases: biochemical
[1] = target: T1, panel of 60 human kinases (Homo sapiens, UniProt O14965); conditions: Aurora A; 0.1 μM; 10 μM ATP; read-out: % Enzyme Activity (relative to DSMO controls)
T1 construct: purchased Reaction Biology Corp
T1 sequence (O14965 1-403): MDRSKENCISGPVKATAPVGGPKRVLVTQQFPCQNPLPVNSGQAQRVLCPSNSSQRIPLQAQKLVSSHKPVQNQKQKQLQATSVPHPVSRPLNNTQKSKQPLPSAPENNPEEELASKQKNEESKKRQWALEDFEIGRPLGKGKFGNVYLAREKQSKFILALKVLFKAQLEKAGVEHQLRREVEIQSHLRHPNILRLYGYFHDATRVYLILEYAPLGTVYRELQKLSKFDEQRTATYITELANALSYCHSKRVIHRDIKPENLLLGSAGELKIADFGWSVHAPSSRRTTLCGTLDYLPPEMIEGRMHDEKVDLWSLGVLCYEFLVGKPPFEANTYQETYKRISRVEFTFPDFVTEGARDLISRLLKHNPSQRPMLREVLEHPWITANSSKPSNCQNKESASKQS
Description: (§1) To better understand the biologically relevant targets of compound 1 and its analogs, a second round of cell-free kinase assays was performed. In this expanded assay, we selected ten analogs ranging from moderately to very strongly protective in the CPA assay. These analogs were evaluated for their ability to inhibit a selection of 60 kinases at 0.1 μM and 0.5 μM. […] RNAseq data were used to confirm the expression of each kinase in ES MNs (see Example 12).
(§2) RNAseq data were used to confirm the expression of each kinase in ES motor neurons (see Example 12).

[2] = target: T2, panel of 60 human kinases (Homo sapiens, UniProt P00519); conditions: ABL1; 0.1 μM; 10 μM ATP; read-out: % Enzyme Activity (relative to DSMO controls)
T2 construct: purchased Reaction Biology Corp
Description: as §1, §2

[3] = target: T3, panel of 60 human kinases (Homo sapiens, UniProt P21802); conditions: FGFR2; 0.1 μM; 10 μM ATP; read-out: % Enzyme Activity (relative to DSMO controls)
T3 construct: purchased Reaction Biology Corp
Description: as §1, §2

[4] = target: T4, panel of 60 human kinases (Homo sapiens, UniProt P49840); conditions: GSK3a; 0.1 μM; 10 μM ATP; read-out: % Enzyme Activity (relative to DSMO controls)
T4 construct: purchased Reaction Biology Corp
Description: as §1, §2

[5] = target: T5, panel of 60 human kinases (Homo sapiens, UniProt P49841); conditions: GSK3b; 0.1 μM; 10 μM ATP; read-out: % Enzyme Activity (relative to DSMO controls)
T5 construct: purchased Reaction Biology Corp
Description: as §1, §2

[6] = target: T6, panel of 60 human kinases (Homo sapiens, UniProt P53779); conditions: JNK3; 0.1 μM; 10 μM ATP; read-out: % Enzyme Activity (relative to DSMO controls)
T6 construct: purchased Reaction Biology Corp
Description: as §1, §2

[7] = target: T7, panel of 60 human kinases (Homo sapiens, UniProt Q00526); conditions: CDK3/cyclin E; 0.1 μM; 10 μM ATP; read-out: % Enzyme Activity (relative to DSMO controls)
T7 construct: purchased Reaction Biology Corp
Description: as §1, §2

[8] = target: T8, panel of 60 human kinases (Homo sapiens, UniProt Q00535); conditions: 0.1 μM, 10 μM ATP, read-out: % Enzyme Activity (relative to DSMO controls)
T8 construct: purchased Reaction Biology Corp
Description: as §1, §2

[9] = target: T9, panel of 60 human kinases (Homo sapiens, UniProt Q00537); conditions: CDK17/cyclin Y (PCTK2); 0.1 μM; 10 μM ATP; read-out: % Enzyme Activity (relative to DSMO controls)
T9 construct: purchased Reaction Biology Corp
Description: as §1, §2

[10] = target: T10, panel of 60 human kinases (Homo sapiens, UniProt Q07002); conditions: CDK18/cyclin Y (PCTK3); 0.1 μM; 10 μM ATP; read-out: % Enzyme Activity (relative to DSMO controls)
T10 construct: purchased Reaction Biology Corp
Description: as §1, §2

[11] = target: T11, panel of 60 human kinases (Homo sapiens, UniProt Q13164); conditions: 0.1 μM, 10 μM ATP, read-out: % Enzyme Activity (relative to DSMO controls)
T11 construct: purchased Reaction Biology Corp
Description: as §1, §2

[12] = target: T12, panel of 60 human kinases (Homo sapiens, UniProt Q13470); conditions: TNK1; 0.1 μM; 10 μM ATP; read-out: % Enzyme Activity (relative to DSMO controls)
T12 construct: purchased Reaction Biology Corp
T12 sequence (Q13470 1-666): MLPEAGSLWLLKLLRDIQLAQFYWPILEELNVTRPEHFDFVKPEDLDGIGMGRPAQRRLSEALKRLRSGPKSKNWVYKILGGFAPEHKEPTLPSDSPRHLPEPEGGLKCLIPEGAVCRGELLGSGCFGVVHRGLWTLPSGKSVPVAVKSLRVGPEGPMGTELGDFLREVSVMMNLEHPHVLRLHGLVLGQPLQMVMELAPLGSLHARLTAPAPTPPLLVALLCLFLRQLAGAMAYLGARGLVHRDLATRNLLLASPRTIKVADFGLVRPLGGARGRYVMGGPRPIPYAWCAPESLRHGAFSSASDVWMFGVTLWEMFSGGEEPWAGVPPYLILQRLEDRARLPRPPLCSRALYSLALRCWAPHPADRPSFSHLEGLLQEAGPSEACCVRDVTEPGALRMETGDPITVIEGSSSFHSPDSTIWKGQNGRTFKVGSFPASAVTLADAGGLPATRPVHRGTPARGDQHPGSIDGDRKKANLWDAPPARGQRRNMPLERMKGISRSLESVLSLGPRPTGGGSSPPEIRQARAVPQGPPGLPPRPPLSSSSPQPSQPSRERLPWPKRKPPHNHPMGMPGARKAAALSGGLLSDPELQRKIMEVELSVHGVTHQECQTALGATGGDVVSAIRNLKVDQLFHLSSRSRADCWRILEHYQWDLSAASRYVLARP
Description: as §1, §2

[13] = target: T13, panel of 60 human kinases (Homo sapiens, UniProt Q13627); conditions: DYRK/RK1A; 0.1 μM; 10 μM ATP; read-out: % Enzyme Activity (relative to DSMO controls)
T13 construct: purchased Reaction Biology Corp
Description: as §1, §2

[14] = target: T14, panel of 60 human kinases (Homo sapiens, UniProt Q15759); conditions: P38b/MAPK11; 0.1 μM; 10 μM ATP; read-out: % Enzyme Activity (relative to DSMO controls)
T14 construct: purchased Reaction Biology Corp
Description: as §1, §2

[15] = target: T15, panel of 60 human kinases (Homo sapiens, UniProt Q8N4C8); conditions: MINK/MINK1; 0.1 μM; 10 μM ATP; read-out: % Enzyme Activity (relative to DSMO controls)
T15 construct: purchased Reaction Biology Corp
Description: as §1, §2

T7 sequence (Q00526 whole entry): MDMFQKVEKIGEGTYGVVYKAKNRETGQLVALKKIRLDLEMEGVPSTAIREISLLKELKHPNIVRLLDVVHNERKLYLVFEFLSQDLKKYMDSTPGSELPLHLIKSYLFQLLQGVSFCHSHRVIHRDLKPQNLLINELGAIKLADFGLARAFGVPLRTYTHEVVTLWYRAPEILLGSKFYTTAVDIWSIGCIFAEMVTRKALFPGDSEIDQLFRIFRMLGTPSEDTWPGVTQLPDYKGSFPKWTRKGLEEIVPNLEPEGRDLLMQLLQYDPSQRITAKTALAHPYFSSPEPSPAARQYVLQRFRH
T14 sequence (Q15759 whole entry): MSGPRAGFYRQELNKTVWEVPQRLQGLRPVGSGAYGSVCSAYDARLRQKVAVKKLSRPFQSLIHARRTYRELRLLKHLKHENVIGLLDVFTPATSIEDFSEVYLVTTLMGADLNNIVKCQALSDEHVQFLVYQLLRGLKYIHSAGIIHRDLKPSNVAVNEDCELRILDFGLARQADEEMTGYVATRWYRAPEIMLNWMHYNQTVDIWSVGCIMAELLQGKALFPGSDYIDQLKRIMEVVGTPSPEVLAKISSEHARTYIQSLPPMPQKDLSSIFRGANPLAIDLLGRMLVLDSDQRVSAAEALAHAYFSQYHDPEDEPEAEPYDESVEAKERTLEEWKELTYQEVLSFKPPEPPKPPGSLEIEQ
T15 sequence (Q8N4C8 whole entry): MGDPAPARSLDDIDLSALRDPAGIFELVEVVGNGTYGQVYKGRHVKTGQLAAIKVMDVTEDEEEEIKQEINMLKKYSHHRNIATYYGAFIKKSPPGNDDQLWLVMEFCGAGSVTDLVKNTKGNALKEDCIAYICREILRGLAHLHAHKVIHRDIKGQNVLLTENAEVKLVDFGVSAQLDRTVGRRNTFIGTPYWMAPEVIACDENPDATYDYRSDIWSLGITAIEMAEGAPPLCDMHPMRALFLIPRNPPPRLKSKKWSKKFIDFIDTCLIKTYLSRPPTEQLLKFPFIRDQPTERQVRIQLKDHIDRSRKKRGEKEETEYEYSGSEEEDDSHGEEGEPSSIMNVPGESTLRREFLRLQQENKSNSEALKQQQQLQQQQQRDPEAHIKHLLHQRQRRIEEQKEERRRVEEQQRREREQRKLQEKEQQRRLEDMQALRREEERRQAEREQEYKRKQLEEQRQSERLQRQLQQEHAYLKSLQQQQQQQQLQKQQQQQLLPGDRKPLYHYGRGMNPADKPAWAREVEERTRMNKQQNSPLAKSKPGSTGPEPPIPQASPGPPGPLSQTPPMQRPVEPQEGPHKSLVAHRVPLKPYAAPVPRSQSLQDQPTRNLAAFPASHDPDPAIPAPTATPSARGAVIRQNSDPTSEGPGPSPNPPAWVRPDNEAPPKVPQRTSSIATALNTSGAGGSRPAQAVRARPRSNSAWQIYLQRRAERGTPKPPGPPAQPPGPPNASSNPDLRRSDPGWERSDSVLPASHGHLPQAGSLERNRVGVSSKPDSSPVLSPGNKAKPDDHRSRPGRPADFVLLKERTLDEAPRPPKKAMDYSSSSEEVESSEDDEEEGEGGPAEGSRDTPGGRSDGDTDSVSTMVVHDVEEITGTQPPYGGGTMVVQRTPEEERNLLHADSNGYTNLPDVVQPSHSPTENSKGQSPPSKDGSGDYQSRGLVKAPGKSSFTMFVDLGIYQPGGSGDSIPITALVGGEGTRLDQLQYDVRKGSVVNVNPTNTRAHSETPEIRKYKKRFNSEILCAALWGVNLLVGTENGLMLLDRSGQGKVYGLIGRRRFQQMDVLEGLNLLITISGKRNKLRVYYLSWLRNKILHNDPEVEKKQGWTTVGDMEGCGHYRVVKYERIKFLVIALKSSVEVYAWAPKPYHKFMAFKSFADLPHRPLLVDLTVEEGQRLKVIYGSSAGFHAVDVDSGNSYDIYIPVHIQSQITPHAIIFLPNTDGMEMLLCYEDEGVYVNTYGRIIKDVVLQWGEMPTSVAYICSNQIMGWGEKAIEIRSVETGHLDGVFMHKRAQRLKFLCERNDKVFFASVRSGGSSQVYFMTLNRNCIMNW
T10 sequence (Q07002 whole entry): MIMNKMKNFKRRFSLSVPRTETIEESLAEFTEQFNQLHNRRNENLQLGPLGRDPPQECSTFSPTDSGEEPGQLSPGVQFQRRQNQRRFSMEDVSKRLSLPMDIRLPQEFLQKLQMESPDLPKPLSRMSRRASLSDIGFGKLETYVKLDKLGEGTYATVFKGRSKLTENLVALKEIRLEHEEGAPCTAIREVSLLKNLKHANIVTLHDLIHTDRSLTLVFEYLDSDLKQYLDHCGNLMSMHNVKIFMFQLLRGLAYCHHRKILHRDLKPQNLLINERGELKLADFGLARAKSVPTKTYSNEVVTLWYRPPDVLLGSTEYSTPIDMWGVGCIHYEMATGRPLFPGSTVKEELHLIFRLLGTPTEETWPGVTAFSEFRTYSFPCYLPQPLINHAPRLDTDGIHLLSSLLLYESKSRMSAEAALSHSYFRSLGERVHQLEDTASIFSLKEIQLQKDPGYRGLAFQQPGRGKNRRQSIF
T2 sequence (P00519 whole entry): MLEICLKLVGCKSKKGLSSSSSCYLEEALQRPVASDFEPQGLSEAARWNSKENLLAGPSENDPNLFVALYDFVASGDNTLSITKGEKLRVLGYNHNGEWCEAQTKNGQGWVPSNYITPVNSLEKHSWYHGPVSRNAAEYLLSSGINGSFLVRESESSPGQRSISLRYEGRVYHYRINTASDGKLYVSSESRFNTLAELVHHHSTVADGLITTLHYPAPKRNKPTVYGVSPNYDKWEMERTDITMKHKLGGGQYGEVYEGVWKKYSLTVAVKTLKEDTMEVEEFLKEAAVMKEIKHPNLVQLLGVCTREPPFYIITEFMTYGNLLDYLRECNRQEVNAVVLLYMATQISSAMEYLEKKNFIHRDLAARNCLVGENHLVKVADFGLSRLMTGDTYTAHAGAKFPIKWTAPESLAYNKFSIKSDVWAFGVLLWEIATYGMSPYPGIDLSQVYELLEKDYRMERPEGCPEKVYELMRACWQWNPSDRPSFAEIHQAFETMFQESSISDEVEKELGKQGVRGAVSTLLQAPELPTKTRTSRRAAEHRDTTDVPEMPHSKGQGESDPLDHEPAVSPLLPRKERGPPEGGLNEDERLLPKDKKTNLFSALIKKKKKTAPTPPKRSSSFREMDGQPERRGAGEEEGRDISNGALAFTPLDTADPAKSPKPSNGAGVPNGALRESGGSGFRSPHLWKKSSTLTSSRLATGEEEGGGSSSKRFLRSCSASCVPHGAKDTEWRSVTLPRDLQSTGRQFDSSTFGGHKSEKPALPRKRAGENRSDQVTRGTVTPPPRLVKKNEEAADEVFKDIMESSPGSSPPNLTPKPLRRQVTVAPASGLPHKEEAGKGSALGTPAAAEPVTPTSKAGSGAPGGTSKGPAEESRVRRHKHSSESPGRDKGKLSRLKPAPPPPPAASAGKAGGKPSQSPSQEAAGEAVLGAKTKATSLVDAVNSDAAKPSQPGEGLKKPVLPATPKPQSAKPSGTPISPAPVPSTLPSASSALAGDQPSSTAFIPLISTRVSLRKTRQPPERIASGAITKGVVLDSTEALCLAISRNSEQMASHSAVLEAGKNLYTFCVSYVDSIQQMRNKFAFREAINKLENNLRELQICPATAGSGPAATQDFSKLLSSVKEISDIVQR
T9 sequence (Q00537 whole entry): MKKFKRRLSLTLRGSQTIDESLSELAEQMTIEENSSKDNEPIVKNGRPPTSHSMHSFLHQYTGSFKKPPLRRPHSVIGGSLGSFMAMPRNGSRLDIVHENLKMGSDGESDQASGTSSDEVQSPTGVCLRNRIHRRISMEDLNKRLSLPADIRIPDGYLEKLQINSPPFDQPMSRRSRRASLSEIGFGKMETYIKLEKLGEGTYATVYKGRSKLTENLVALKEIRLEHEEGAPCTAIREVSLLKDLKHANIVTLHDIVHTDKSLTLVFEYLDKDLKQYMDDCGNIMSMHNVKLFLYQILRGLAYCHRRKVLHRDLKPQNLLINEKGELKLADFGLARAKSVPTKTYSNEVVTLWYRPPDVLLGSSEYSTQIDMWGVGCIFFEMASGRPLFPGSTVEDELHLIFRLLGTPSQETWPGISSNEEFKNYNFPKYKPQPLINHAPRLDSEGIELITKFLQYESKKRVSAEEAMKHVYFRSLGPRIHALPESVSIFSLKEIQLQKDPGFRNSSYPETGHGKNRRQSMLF
T6 sequence (P53779 whole entry): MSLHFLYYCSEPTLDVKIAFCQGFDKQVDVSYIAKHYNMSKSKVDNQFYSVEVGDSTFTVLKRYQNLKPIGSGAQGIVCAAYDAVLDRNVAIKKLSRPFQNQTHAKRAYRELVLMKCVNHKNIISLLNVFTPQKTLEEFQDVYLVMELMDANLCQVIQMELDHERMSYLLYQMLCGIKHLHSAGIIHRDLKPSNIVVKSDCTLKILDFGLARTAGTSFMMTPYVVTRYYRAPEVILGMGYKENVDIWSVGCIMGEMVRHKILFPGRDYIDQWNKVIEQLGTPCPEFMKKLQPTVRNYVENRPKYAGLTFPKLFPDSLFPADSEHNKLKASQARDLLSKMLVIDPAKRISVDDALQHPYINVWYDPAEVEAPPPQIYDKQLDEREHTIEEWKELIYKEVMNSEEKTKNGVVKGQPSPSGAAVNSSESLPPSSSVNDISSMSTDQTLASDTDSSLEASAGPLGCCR
T8 sequence (Q00535 whole entry): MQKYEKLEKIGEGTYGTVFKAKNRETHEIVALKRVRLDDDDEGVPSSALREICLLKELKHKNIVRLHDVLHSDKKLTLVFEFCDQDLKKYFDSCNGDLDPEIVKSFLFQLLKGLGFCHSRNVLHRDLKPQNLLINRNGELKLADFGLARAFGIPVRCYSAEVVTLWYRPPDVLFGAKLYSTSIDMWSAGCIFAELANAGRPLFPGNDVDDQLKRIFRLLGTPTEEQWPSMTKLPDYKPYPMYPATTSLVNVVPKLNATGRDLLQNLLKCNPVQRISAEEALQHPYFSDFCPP

Row | Compound | remaining activity at 0.1 µM [1] [%] | remaining activity at 0.1 µM [2] [%] | remaining activity at 0.1 µM [3] [%] | remaining activity at 0.1 µM [4] [%] | remaining activity at 0.1 µM [5] [%] | remaining activity at 0.1 µM [6] [%] | remaining activity at 0.1 µM [7] [%] | remaining activity at 0.1 µM ([8]; CDK5/p25) [%] | remaining activity at 0.1 µM ([8]; CDK5/p35) [%] | remaining activity at 0.1 µM [9] [%] | remaining activity at 0.1 µM [10] [%] | remaining activity at 0.1 µM ([11]; ERK5/MAPK7 (CD)) [%] | remaining activity at 0.1 µM ([11]; ERK5/MAPK7) [%] | remaining activity at 0.1 µM [12] [%] | remaining activity at 0.1 µM [13] [%] | remaining activity at 0.1 µM [14] [%] | remaining activity at 0.1 µM [15] [%]
1 | CN1CCN(Cc2ccc(-c3cnc4[nH]cc(-c5ccc6c(c5)OCCO6)c4c3)cc2)CC1 [Compound 7d, 3-(2,3-Dihydrobenzo[b][1,4]dioxin-6-yl)-5-(4-((4-methylpiperazin-1-yl)methyl)phenyl)-1H-pyrrolo[2,3-b]pyridine] | 74.8 | 74.5 | 70.4 | 13.6 | 30.9 | 120 | 76.7 | 16.4 | 14.2 | 41.1 | 82.8 | 87.5 | 96.8 | 44.3 | 3.15 | 101 | 6.69
2 | CN1CCN(Cc2ccc(-c3cnc4[nH]cc(-c5ccncc5)c4c3)cc2)CC1 [Compound 7n, 5-(4-((4-Methylpiperazin-1-yl)methyl)phenyl)-3-(pyridin-4-yl)-1H-pyrrolo[2,3-b]pyridine] | 96.4 | 88.4 | 94 | 75.3 | 90.7 | 115 | 72.3 | 69.2 | 57.5 | 10.7 | 24 | 98.9 | 90.6 | 87.8 | 40.3 | 101 | 38.8
3 | CN1CCN(Cc2ccc(-c3cnc4[nH]cc(-c5ccoc5)c4c3)cc2)CC1 [Compound 7w, 3-(Furan-3-yl)-5-(4-((4-methylpiperazin-1-yl)methyl)phenyl)-1H-pyrrolo[2,3-b]pyridine] | 83.9 | 64.8 | 77.8 | 75.3 | 85.1 | 113 | 93.7 | 89.4 | 82.2 | 61.4 | 94.5 | 96.3 | 108 | 73.2 | 71.2 | 99.3 | 3.72
